Measurements: publication PMC7128553 (Chemistry & Biology, 2004)
“Also recorded” adds a separate entry of the source. Read-outs that look alike come from different tables or passages of the source.

Columns and labels:
SARS-CoV = assay: microbe, parasite or virus in culture; type: cell-based; conditions: read-out: EC50, SARS-CoV plaque formation
Vero cells = conditions: African green monkey
[1] = target: T1, human neutrophil elastase (HNE) (Homo sapiens, UniProt P08246); type: biochemical
T1 sequence (P08246 30-267): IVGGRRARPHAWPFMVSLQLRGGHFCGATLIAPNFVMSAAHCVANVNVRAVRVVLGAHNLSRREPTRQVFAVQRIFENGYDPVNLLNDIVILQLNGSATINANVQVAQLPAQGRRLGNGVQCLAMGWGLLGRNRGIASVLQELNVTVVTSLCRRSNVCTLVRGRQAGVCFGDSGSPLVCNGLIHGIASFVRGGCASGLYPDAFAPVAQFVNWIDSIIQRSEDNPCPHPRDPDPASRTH

poliovirus (type 1) = type: cell-based
[2] = Severe acute respiratory syndrome coronavirus, Vero

| SMILES | EC50 (SARS-CoV; [2]) | EC50 (SARS-CoV) | Cytotoxicity on Vero Cells (TC50) (Vero cells) | Inhibition of proteolytic activity of HNE [1] | Inhibition of poliovirus plaque formation (poliovirus (type 1)) |
| --- | --- | --- | --- | --- | --- |
| O=C(Nc1ccc(Cl)c(-c2nc3ncccc3o2)c1)c1cccc(OCc2ccccc2)c1 [HE602, 3-Benzyloxy-N-(4-chloro-3-oxazolo[4,5-b]pyridine-2-yl-phenyl)benzamide] | 6 µM | < 10 µM | >50 µM |  |  |
| CC1=C(C(=O)OCCc2ccccc2)C(c2ccccc2[N+](=O)[O-])C2=C(CCCC2=O)N1 (stereo not drawn) [MP576, 3-quinolinecarboxylic acid, 1,4,5,6,7,8-hexahydro-2-methyl-4-(2-nitrophenyl)-5-oxo-, 2-phenylethyl ester] | 7 µM | < 10 µM | >50 µM | failed to inhibit; also recorded: did not inhibit |  |
| OC(COc1cccc(OCC(O)CN2CCCCC2)c1)CN1CCCCC1 (stereo not drawn) [VE607, 1-[3-(2-Hydroxyl-3-piperidin-1-yl-propoxy)-phenoxy]-3-piperidin-1-ylpropan-2-ol] |  |  | >50 µM |  | did not protect; also recorded: did not inhibit |
